Data reported in patent US12084411B2, “Hinokitiol analogues, methods of preparing and pharmaceutical compositions thereof” (The Board of Trustees of the University of Illinois, priority 2018, dated 2024).
“Also recorded” adds a separate entry of the source.

Legend:
[1] = test system: fet3Δftr1Δ yeast; experiment: Fe3+ uptake assay in yeast; type: cell-based, Saccharomyces cerevisiae
Protocol: Iron (III) uptake into wild type and fet3Δftr1Δ yeast was adapted from Kosman and coworkers (56). Overnight yeast cultures were repeatedly centrifuged and rinsed with water. The cell pellet was resuspended in MilliQ water, and diluted in SD media without FeCl3. The cells were incubated at 30° C. for 3 hours, centrifuged and rinsed with water twice. The cells were then suspended to 3×10^7 cells/mL in SD media containing 50 mM sodium citrate and 2% glucose. Hinokitiol or C2deOHino (from 40X stocks in DMSO) was added to a final concentration of 100 μM before ^55FeCl3 ([…]) was added to the yeast suspensions. The suspension was continuously homogenized before aliquots were taken and diluted with 10 mL of room temperature water. Cells were then collected via vacuum filtration through a 0.45 μm nitrocellulose filter (Millipore HAWP), and rinsed with room temperature water (×5 of 100 mL). The filters were then transferred to a scintillation vial containing 3 mL of scintillation cocktail for measuring radioactivity using a liquid scintillation counter.

[2] = test system: DMT1-deficient Caco-2 monolayers; experiment: 55Fe uptake and transport in DMT1-deficient Caco-2 monolayers; settings: for iron uptake and transepithelial transport: apical addition (hinokitiol 500 nM), pH 5.5 apical, pH 7.4 basolateral, four hours
Protocol: Media from differentiated Caco-2 monolayers (P25-50, 21-28 days post seeding) grown on PET inserts in 6-well plates was aspirated, and monolayers were rinsed with PBS. 2 mL of basolateral fluid (serum-free DMEM at pH=7.4 in 10 mM HEPES buffer) was added to the basolateralside, and 1 mL of apical fluid (serum-free DMEM at pH=5.5 in 10 mM MES buffer) containing 200 nM ^55FeCl3 or the indicated concentration of FeCl3 and either DMSO vehicle, hinokitiol, C2deOHino, deferiprone, PIH, SIH, or deferoxamine mesylate (Sigma D9533) (500 nM Hino/C2deOHino for DMT1-deficiency, 1 μM Hino/C2deOHino for FPN1-deficiency, or indicated concentration of small molecule from a 1000X stock in DMSO) was added to the apical side via addition on the wall of the membrane insert without disrupting the cell monolayer. The monolayers were then incubated for four hours at 37° C. unless otherwise noted. A 100 μL aliquot of the basolateral fluid was removed, diluted in scintillation cocktail, and radioactivity was determined on a liquid scintillation counter to quantify relative amounts of ^55Fe transport. To determine intracellular ^55Fe, the basolateral and apical media was removed, and the monolayer was rinsed with PBS (×2). The cells were then lysed with 500 μL of 200 mM NaOH with nutator mixing overnight, and radioactivity was determined on a liquid scintillation counter after diluting the cell lysate in scintillation cocktail. All values were normalized to shControl monolayers unless otherwise noted. Absolute iron levels were determined through calibration of ^55Fe radioactivity levels with known standards and average mg of protein per membrane was determined by protein lysis with RIPA buffer containing protease inhibitors and quantified through a BCA kit according to manufacturer instructions.
TEER determination in Caco-2 monolayers (FIG. 12D and FIG. 14L) To determine Caco-2 membrane integrity, transport studies were performed as described above, except for the use of non-radioactive iron instead of ^55FeCl3. At the indicated time points, the transepithelial electrical resistance (TEER) was determined with an epithelial voltohmmeter and compared to the TEER of the membrane at the beginning of the experiment.

[3] = test system: fet3Δftr1Δ yeast; experiment: Growth rescue of fet3Δftr1Δ yeast with small molecules in liquid media; type: cell-based, Saccharomyces cerevisiae; settings: liquid low iron SD media, 10 μM FeCl3
Protocol: Growth rescue in yeast was performed similar to previously reported (20) using 10 μM hinokitiol in low iron SD liquid media containing 10 μM FeCl3 in a 96-well plate unless otherwise noted. Wild type and fet3Δftr1Δ controls treated with vehicle (DMSO) were performed under identical conditions using the same low iron SD media containing 10 μM FeCl3 in the absence of hinokitiol. Yeast were grown overnight in YPD media and diluted at an OD600 of 0.1 in SD media, diluted 10-fold, and incubated at 30° C. with continuous shaking (200 rpm). The OD600 was obtained 24-48 hours after inoculation unless otherwise noted.
Small molecule dose-response (FIG. 1F) with hinokitiol and C2-deoxy hinokitiol (C2deOHino, see synthesis below) was determined by addition of the small molecule (40X stock solution in DMSO) to give the indicated final concentrations.

[4] = test system: DMT1-deficient MEL cells; experiment: Differentiation and hemoglobinization of DMT1-deficient MEL cells; type: cell-based, mouse; settings: 1 μM, three days
Protocol: Differentiation of MEL Cells with DMSO (FIG. 3D) To perform differentiation experiments with MEL cells (39), the indicated MEL cells were diluted to 1×10^5 cells/mL in MEL Complete media containing 10 μM iron (III) citrate and 2% DMSO in the absence or presence of 1 μM hinokitiol or C2deOHino (added from 1000X stock in DMSO) in 12-well plates. Cells were then incubated at 37° C. for 72 hours unless otherwise noted.
Hemoglobinized MEL cells were quantified three days after DMSO induction through o-dianisidine staining similar to previously reported (74). Cells were centrifuged three days after induction and rinsed with PBS. The cells were then suspended in a solution containing 7.5 mM o-dianisidine, 900 mM H2O2, and 150 mM acetic acid in water at ˜1×10^6 cells/mL. Cells were then imaged on an AXIO Zoom V16 microscope to obtain color images. The number of stained cells were then quantified via ImageJ analysis and compared to the number of total cells in each image. To determine that hinokitiol requires DMSO induction for hemoglobinization, 2% DMSO was not added at the beginning of the experiment before a 72-hour incubation and o-dianisidine staining.
MEL cells were induced for differentiation as described above and incubated at 37° C. for 70 hours before addition of a saturated iron-transferrin (^55Fe2Tf) solution (40 nM final concentration from a 10 μM ^55Fe2Tf stock). The cells were incubated for an additional two hours. After completion, the cells were counted with a hemocytometer, the media was removed after centrifugation, the cells were rinsed with PBS (×3), and the cell suspension was diluted in scintillation cocktail and radioactivity was determined. […] The cells were incubated for an additional eight hours. After completion, the cells were counted with a hemocytometer, the media was removed after centrifugation, and the cells were rinsed with PBS (×3). The cells were then lysed with RIPA buffer, diluted with water, and heme was extracted using a 3:1 ethyl acetate:acetic acid solution. An aliquot of the organic extract was diluted in scintillation cocktail and radioactivity was determined. Radioactive levels were normalized per cell (counted by hemocytometer) relative to wild type (DS19) levels.
MEL cells were induced for differentiation as described above and incubated at 37° C. for 72 hours. After completion, the cells were counted with a hemocytometer, the media was removed after centrifugation, and cells were rinsed with PBS (×2). The cells were then lysed through repeated freeze/thaw cycles with water, and hemoglobin levels per 10^6 cells were determined as previously described (77) by determining the OD415 after centrifugation. Globin levels by western blot were determined after differentiation as described above. After incubation for 72 hours, cells were lysed and globin levels were determined by western blot as described above.

## CC(C)c1cccc(=O)cc1 [C2deOHino, C2-deoxy hinokitiol]
[1]
  55Fe uptake into fet3Δftr1Δ yeast: no uptake up to 100 μM
[2]
  iron uptake and transepithelial transport: did not promote both uptake and transport
[3]
  restoration of fet3Δftr1Δ yeast growth, small molecule dose-response: no biological activity; also recorded: does not
[4]
  55Fe uptake: no effect
  55Fe-heme incorporation: no effect
  hemoglobinization: no effect

## CC(C)c1cccc(=O)c(O)c1 [hinokitiol]
[1]
  55Fe uptake into fet3Δftr1Δ yeast: dose-dependent increase in ^55Fe uptake from 5 to 100 μM
[2]; 500 nM
  monolayer integrity (TEER): did not disrupt monolayer integrity
[2]
  iron uptake and transepithelial transport: restored uptake and transport
[3]
  restoration of fet3Δftr1Δ yeast growth, small molecule dose-response: dose-dependently restores yeast growth
[3]; listed as Hinokitiol
  restoration of fet3Δftr1Δ yeast growth, small molecule dose-response: rescues growth of iron transporter-deficient yeast (Fet3Ftr1) at low concentrations
[4]
  55Fe uptake: restored
  55Fe-heme incorporation: restored
  hemoglobinization: restored
